Reference: patent US10441562B2, “Aromatic farnesyl compound and application thereof” (INSTITUTE OF MICROBIOLOGY, CHINESE ACADEMY OF SCIENCES, priority 2015, dated 2019)
Marks after values point to notes of the source that are not given here.

What was measured:
Kunming species mice = assay: acute toxicity test of mice
Procedure: (§1) Materials: 20 Kunming species mice of 6-8 weeks of 20-22 g are purchased from Beijing Vital River Laboratory Animal Technology Co., Ltd.,
(§2) Accurately weigh the 2 compounds S13 and S28, and then add 0.5% CMC-Na to make the solution of 0.2 g/ml.
(§3) After being acclimatized for 3-5 days, the mice are fasted at 18:00 in the day before the experiment, free drinking. The mice are randomly divided into groups of 10 animals in each and given with medicine by intragastric administration, and 0.25 ml of drugs is given to every 10 g weight of mice, i.e. dose 5 g/kg. Mice of control group are given with 0.5% CMC-Na by intragastric administration, and 0.25 ml of solution are given to every 10 g weight of mice.
(§4) After administration, observe the general status of mice, such as appearance, behavior, response to stimulus, secretion and excretion, and record the time when abnormal phenomena happen. If death occurred, record time and observe the abnormal phenomena by autopsy.

[1] = acute toxicity test of mice; conditions: Kunming, mouse, in vivo, po, 5 g/kg
Procedure: as §1, §2, §3, §4

[2] = test system: Wister rats fed with choline deficient diet; assay: hepatic tissue section of non-alcohol fatty liver rats (HE); format: in vivo; conditions: FIG. 2, 10 and 20 mg/kg
Procedure: Methods: male SPF level Wister rats are randomly divided into groups: (1) normal group (2) model control group (3) which is administered by compound S13 with the dose of 10 mg/kg (4) which is administered by compound S13 with the dose of 20 mg/kg (5) which is administered by compound S28 with the dose of 10 mg/kg […] which is administered by compound S28 with the dose of 20 mg/kg. Each group has 10 mice. The mice of normal group are fed with standard diet, the mice of other groups are fed with choline deficient diet (high-fat diet). Food intake and body weight are detected. Feeding with choline deficient diet are considered as a frequently-used hepatic adipose infiltration modeling method of rodent, which can induce the denaturation of hepatocyte, hepatitis and liver injury, at the same time the increase of blood lipid level can induce the insulin resistance.
After being fed with high-fat diet for 8 weeks, the mice of treated group are given drugs for 4 weeks successively. Model group and normal group are given with equal amounts of 0.5% CMC-Na. After administration of medicine for 4 weeks, the rats are executed under anesthesia, and then hepatic tissue and blood are collected.
4) Hepatic tissue section: after the last administration, the rats are executed under anesthesia. Collect the liver on the ice, then quickly fix the liver into formalin and prepare the tissue sections.

[3] = test system: hyperglycemia KK-A^y mice; assay: glucose tolerance test (OGTT) in hyperglycemia KK-A^y mice; format: in vivo; conditions: OGTT 12th day, glucose 2.0 g/kg oral
Procedure: KK-A^y mice are purchased from Chinese Academy of Medical Sciences & Peking Union Medical College Institute of Animal Studies. Experiments are carried out after adapting to the environment (T=20-24° C., constant humidity: 50-60%, 12 hours light exposure (8:00-20:00), soundproof, free feeding and drinking) for 1 week. Glucometer is purchased from Roche.
Each group has 8 mice, and is administrated successively for 3 weeks. Model control group is given with equal amounts of 0.5% CMC-Na.
3) Glucose tolerance test (OGTT): glucose tolerance is detected at the 12th day after administration. The mice are fasted for 12 hours and blood is collected (0 h). After being given with glucose (2.0 g/kg) by oral administration, blood is collected from tip of tail to detect the blood sugar level after 30 min, 60 min and 120 min respectively (see table 11).

HMG-CoA reductase = target: T1, HMG-CoA reductase (Homo sapiens, UniProt P04035); assay: HMG-CoA reductase inhibitory activity test in vitro; format: biochemical
T1 sequence (P04035 426-888 limits assumed): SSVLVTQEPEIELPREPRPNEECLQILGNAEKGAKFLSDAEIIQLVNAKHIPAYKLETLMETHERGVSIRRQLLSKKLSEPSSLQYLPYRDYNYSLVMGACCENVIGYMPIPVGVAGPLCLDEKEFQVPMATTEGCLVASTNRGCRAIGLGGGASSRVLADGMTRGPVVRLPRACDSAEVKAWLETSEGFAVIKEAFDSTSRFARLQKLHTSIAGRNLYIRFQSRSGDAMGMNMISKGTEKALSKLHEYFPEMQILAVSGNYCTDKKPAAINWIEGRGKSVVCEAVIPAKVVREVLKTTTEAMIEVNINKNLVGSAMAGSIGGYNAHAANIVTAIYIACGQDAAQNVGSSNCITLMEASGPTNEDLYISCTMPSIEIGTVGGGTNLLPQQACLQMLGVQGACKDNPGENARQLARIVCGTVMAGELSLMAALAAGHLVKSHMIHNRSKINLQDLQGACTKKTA

Structure (SMILES)	LD50 [1] [mg/kg]	fat vacuole in hepatocyte (liver tissue section, HE) [2]	glucose tolerance, blood sugar 0 min ([3]; 1 mg/kg, groups 3, 7)	glucose tolerance, blood sugar 0 min ([3]; 5 mg/kg, groups 4, 8)	glucose tolerance, blood sugar 0 min ([3]; 10 mg/kg, groups 5, 9)	glucose tolerance, blood sugar 0 min ([3]; 20 mg/kg, groups 6, 10)	glucose tolerance, blood sugar 30 min ([3]; 1 mg/kg, groups 3, 7)	glucose tolerance, blood sugar 30 min ([3]; 5 mg/kg, groups 4, 8)	glucose tolerance, blood sugar 30 min ([3]; 10 mg/kg, groups 5, 9)	glucose tolerance, blood sugar 30 min ([3]; 20 mg/kg, groups 6, 10)	glucose tolerance, blood sugar 60 min ([3]; 1 mg/kg, groups 3, 7)	glucose tolerance, blood sugar 60 min ([3]; 5 mg/kg, groups 4, 8)	glucose tolerance, blood sugar 60 min ([3]; 10 mg/kg, groups 5, 9)	glucose tolerance, blood sugar 60 min ([3]; 20 mg/kg, groups 6, 10)	glucose tolerance, blood sugar 120 min ([3]; 1 mg/kg, groups 3, 7)	glucose tolerance, blood sugar 120 min ([3]; 5 mg/kg, groups 4, 8)	glucose tolerance, blood sugar 120 min ([3]; 10 mg/kg, groups 5, 9)	glucose tolerance, blood sugar 120 min ([3]; 20 mg/kg, groups 6, 10)	IC50 (HMG-CoA reductase) [µM]	other results
CC(C)=CCC/C(C)=C/CCC1=C[C@@H](c2cc(O)ccc2O)OC1=O [S28, (S,E)-5-(2,5-dihydroxyphenyl)-3-(4,8-dimethylnona-3,7-dien-1-yl)furan-2(5H)-one]	> 5000	almost disappear	9.5	6.8**	7.6*	6.9**	11.3**	9.3**	16.9**	14.3**	10.5**	9.3**	13.2**	12.4**	8.3**	5.1**	10.9**	11.9**	8.9	abnormal phenomena by autopsy (Kunming species mice; mouse, in vivo): no obvious abnormal phenomena are found by autopsy; body weight of mice after administration (Kunming species mice; mouse, in vivo): drop slightly
CC(C)=CCC/C(C)=C/CCC1=C[C@H](c2cc(O)ccc2O)OC1=O [S13, (R,E)-5-(2,5-dihydroxyphenyl)-3-(4,8-dimethylnona-3,7-dien-1-yl)furan-2(5H)-one]	> 5000	almost disappear	9.6	6.9*	7.96	6.90*	12.5**	9.1**	16.95**	14.00**	10.2**	9.1**	13.20**	12.45**	8.2**	5.2**	10.93**	11.90**	7.9	abnormal phenomena by autopsy (Kunming species mice; mice, intragastric administration, dose 5 g/kg): no obvious abnormal phenomena are found by autopsy
